System: 252836-082-R-J2-PDC tumor spheroids, viability
Assay: Anticancer human tumor 252836-082-R-J2-PDC patient-derived head and neck squamous cell carcinoma cell line growth inhibition [PI3K]
Details: spheroids with HUVEC and MSC; for IC50: curve of first compound; for viability, T/C: stronger effect = lower value
Outline: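 Stroma-containing spheroids: tumor line, pooled-donor HUVEC, hMSC. Treatments: targeted agents with PI3K inhibitors. Dosing: clinically relevant, half-log spacing, 10 microM ceiling without known Cmax. Read-out: cell viability.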

[1] = second compound 0.00316 µM, first compound 0.0316 µM
[2] = second compound 0.00316 µM, first compound 0.1 µM
[3] = second compound 0.00316 µM, first compound 0.316 µM
[4] = second compound 0.00316 µM, first compound 1 µM
[5] = second compound 0.00316 µM, first compound 3.16 µM
[6] = second compound 0.00316 µM, first compound 10 µM
[7] = second compound 0.01 µM, first compound 0.0316 µM
[8] = second compound 0.01 µM, first compound 0.1 µM
[9] = second compound 0.01 µM, first compound 0.316 µM
[10] = second compound 0.01 µM, first compound 1 µM
[11] = second compound 0.01 µM, first compound 3.16 µM
[12] = second compound 0.01 µM, first compound 10 µM
[13] = second compound 0.0316 µM, first compound 0.0316 µM
[14] = second compound 0.0316 µM, first compound 0.1 µM
[15] = second compound 0.0316 µM, first compound 0.316 µM
[16] = second compound 0.0316 µM, first compound 1 µM
[17] = second compound 0.0316 µM, first compound 3.16 µM
[18] = second compound 0.0316 µM, first compound 10 µM
[19] = second compound 0.1 µM, first compound 0.0316 µM
[20] = second compound 0.1 µM, first compound 0.1 µM
[21] = second compound 0.1 µM, first compound 0.316 µM
[22] = second compound 0.1 µM, first compound 1 µM
[23] = second compound 0.1 µM, first compound 3.16 µM
[24] = second compound 0.1 µM, first compound 10 µM
[25] = second compound 0.316 µM, first compound 0.0316 µM
[26] = second compound 0.316 µM, first compound 0.1 µM
[27] = second compound 0.316 µM, first compound 0.316 µM
[28] = second compound 0.316 µM, first compound 1 µM
[29] = second compound 0.316 µM, first compound 3.16 µM
[30] = second compound 0.316 µM, first compound 10 µM
[31] = second compound 1 µM, first compound 0.0316 µM
[32] = second compound 1 µM, first compound 0.1 µM
[33] = second compound 1 µM, first compound 0.316 µM
[34] = second compound 1 µM, first compound 1 µM
[35] = second compound 1 µM, first compound 3.16 µM
[36] = second compound 1 µM, first compound 10 µM
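Also: spheroids exposed to agents for seven days before readout.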
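For viability, T/C in this document: percent of vehicle DMSO control viability so 100% = untreated growth.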

CNC(=O)c1ccc(N2C(=S)N(c3ccc(C#N)c(C(F)(F)F)c3)C(=O)C2(C)C)cc1F + COc1c(OCCCN2CCOCC2)ccc2c3n(c(=NC(=O)c4cnc(N)nc4)nc12)CCN3
IC50 (second compound 0.00316 µM): > 10 µM | IC50 (second compound 0.01 µM): > 10 µM | IC50 (second compound 0.0316 µM): > 10 µM | IC50 (second compound 0.1 µM): < 0.0316 µM | IC50 (second compound 0.316 µM): < 0.0316 µM | IC50 (second compound 1 µM): < 0.0316 µM | viability, T/C [1]: 97.9% | viability, T/C [2]: 85.8% | viability, T/C [3]: 87.3% | viability, T/C [4]: 96.5% | viability, T/C [5]: 96.2% | viability, T/C [6]: 77.7% | viability, T/C [7]: 73% | viability, T/C [8]: 64.5% | viability, T/C [9]: 79.5% | viability, T/C [10]: 71.9% | viability, T/C [11]: 76.1% | viability, T/C [12]: 80% | viability, T/C [13]: 60.7% | viability, T/C [14]: 60.1% | viability, T/C [15]: 49.9% | viability, T/C [16]: 60.9% | viability, T/C [17]: 62.8% | viability, T/C [18]: 54.3% | viability, T/C [19]: 36% | viability, T/C [20]: 38% | viability, T/C [21]: 36% | viability, T/C [22]: 36.3% | viability, T/C [23]: 33.5% | viability, T/C [24]: 34.5% | viability, T/C [25]: 19% | viability, T/C [26]: 17.2% | viability, T/C [27]: 17.1% | viability, T/C [28]: 17.3% | viability, T/C [29]: 17.4% | viability, T/C [30]: 13.4% | viability, T/C [31]: 4.5% | viability, T/C [32]: 3.94% | viability, T/C [33]: 5.87% | viability, T/C [34]: 4.83% | viability, T/C [35]: 4.62% | viability, T/C [36]: 4.12%

CC1(C)CCC(CN2CCN(c3ccc(C(=O)NS(=O)(=O)c4ccc(NCC5CCOCC5)c([N+](=O)[O-])c4)c(Oc4cnc5[nH]ccc5c4)c3)CC2)=C(c2ccc(Cl)cc2)C1 + Cc1nc(NC(=O)N2CCCC2C(N)=O)sc1-c1ccnc(C(C)(C)C(F)(F)F)c1
IC50 (second compound 0.0316 µM): 5.42 µM | IC50 (second compound 0.1 µM): 5.2 µM | IC50 (second compound 0.316 µM): 4.13 µM | IC50 (second compound 1 µM): 4.08 µM | IC50 (second compound 3.16 µM): 2.74 µM | IC50 (second compound 10 µM): < 0.0316 µM | viability, T/C [13]: 91.7% | viability, T/C [14]: 77.8% | viability, T/C [15]: 96.2% | viability, T/C [16]: 96.8% | viability, T/C [17]: 89.8% | viability, T/C [18]: 4.76% | viability, T/C [19]: 83.1% | viability, T/C [20]: 87.5% | viability, T/C [21]: 83.2% | viability, T/C [22]: 80.9% | viability, T/C [23]: 94.4% | viability, T/C [24]: 2.88% | viability, T/C [25]: 92.8% | viability, T/C [26]: 86.1% | viability, T/C [27]: 75.5% | viability, T/C [28]: 84% | viability, T/C [29]: 64% | viability, T/C [30]: 3.65% | viability, T/C [31]: 63.6% | viability, T/C [32]: 63.6% | viability, T/C [33]: 64% | viability, T/C [34]: 65.6% | viability, T/C [35]: 63.1% | viability, T/C [36]: 3.88% | viability, T/C (second compound 3.16 µM, first compound 0.0316 µM): 59.1% | viability, T/C (second compound 3.16 µM, first compound 0.1 µM): 53.5% | viability, T/C (second compound 3.16 µM, first compound 0.316 µM): 46.3% | viability, T/C (second compound 3.16 µM, first compound 1 µM): 55.1% | viability, T/C (second compound 3.16 µM, first compound 3.16 µM): 49.4% | viability, T/C (second compound 3.16 µM, first compound 10 µM): 2.29% | viability, T/C (second compound 10 µM, first compound 0.0316 µM): 32.3% | viability, T/C (second compound 10 µM, first compound 0.1 µM): 39.4% | viability, T/C (second compound 10 µM, first compound 0.316 µM): 38.9% | viability, T/C (second compound 10 µM, first compound 1 µM): 34% | viability, T/C (second compound 10 µM, first compound 3.16 µM): 36.1% | viability, T/C (second compound 10 µM, first compound 10 µM): 1.57%

CC(Cn1ccc(-c2ccc(C#N)c(Cl)c2)n1)NC(=O)c1cc(C(C)O)[nH]n1 (stereo unspecified) + CC(Nc1ccc2c(c1)OCCn1cc(N3C(=O)OCC3C(F)F)nc1-2)C(N)=O
IC50 (second compound 0.00316 µM): > 10 µM | IC50 (second compound 0.01 µM): > 10 µM | IC50 (second compound 0.0316 µM): > 10 µM | IC50 (second compound 0.1 µM): > 10 µM | IC50 (second compound 0.316 µM): > 10 µM | IC50 (second compound 1 µM): < 0.0316 µM | viability, T/C [1]: 94.1% | viability, T/C [2]: 88.5% | viability, T/C [3]: 97.6% | viability, T/C [4]: 94.7% | viability, T/C [5]: 98.7% | viability, T/C [6]: 90.6% | viability, T/C [7]: 102% | viability, T/C [8]: 87.6% | viability, T/C [9]: 87.6% | viability, T/C [10]: 106% | viability, T/C [11]: 90.7% | viability, T/C [12]: 88.8% | viability, T/C [13]: 78.4% | viability, T/C [14]: 82.8% | viability, T/C [15]: 86.1% | viability, T/C [16]: 74.8% | viability, T/C [17]: 78.3% | viability, T/C [18]: 87.9% | viability, T/C [19]: 62.1% | viability, T/C [20]: 63.4% | viability, T/C [21]: 68.1% | viability, T/C [22]: 66.1% | viability, T/C [23]: 66.1% | viability, T/C [24]: 65.8% | viability, T/C [25]: 57.7% | viability, T/C [26]: 57.8% | viability, T/C [27]: 56.1% | viability, T/C [28]: 56.8% | viability, T/C [29]: 56.8% | viability, T/C [30]: 46.5% | viability, T/C [31]: 50.2% | viability, T/C [32]: 47.3% | viability, T/C [33]: 46.8% | viability, T/C [34]: 45.3% | viability, T/C [35]: 49.9% | viability, T/C [36]: 47.3%

— PubChem BioAssay AID1963985 (Molecular Pharmacology Branch, DTP, NCI, 2024)
